Test results as given in PubChem BioAssay AID1918942 (Molecular Pharmacology Branch, DTP, NCI, 2023).

Test system: 743489-274-T-PDC complex spheroid viability
Test: Anticancer human tumor 743489-274-T-PDC patient-derived renal cell carcinoma cell line growth inhibition
Details: for IC50: curve of first compound; for viability, T/C: stronger effect = lower value
In short: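 Drug combinations with the LSD1 inhibitor iadademstat tested on tumor cells co-cultured as spheroids with endothelial cells and mesenchymal stem cells. Concentrations descended in half-log increments from clinical Cmax or 10 microM.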

[1] = second compound 0.1 µM, first compound 0.000316 µM
[2] = second compound 0.1 µM, first compound 0.001 µM
[3] = second compound 0.1 µM, first compound 0.00316 µM
[4] = second compound 0.1 µM, first compound 0.01 µM
[5] = second compound 0.1 µM, first compound 0.0316 µM
[6] = second compound 0.1 µM, first compound 0.1 µM
[7] = second compound 0.316 µM, first compound 0.000316 µM
[8] = second compound 0.316 µM, first compound 0.001 µM
[9] = second compound 0.316 µM, first compound 0.00316 µM
[10] = second compound 0.316 µM, first compound 0.01 µM
[11] = second compound 0.316 µM, first compound 0.0316 µM
[12] = second compound 0.316 µM, first compound 0.1 µM
[13] = second compound 1 µM, first compound 0.000316 µM
[14] = second compound 1 µM, first compound 0.001 µM
[15] = second compound 1 µM, first compound 0.00316 µM
[16] = second compound 1 µM, first compound 0.01 µM
[17] = second compound 1 µM, first compound 0.0316 µM
[18] = second compound 1 µM, first compound 0.1 µM
[19] = second compound 3.16 µM, first compound 0.000316 µM
[20] = second compound 3.16 µM, first compound 0.001 µM
[21] = second compound 3.16 µM, first compound 0.00316 µM
[22] = second compound 3.16 µM, first compound 0.01 µM
[23] = second compound 3.16 µM, first compound 0.0316 µM
[24] = second compound 3.16 µM, first compound 0.1 µM
[25] = second compound 10 µM, first compound 0.000316 µM
[26] = second compound 10 µM, first compound 0.001 µM
[27] = second compound 10 µM, first compound 0.00316 µM
[28] = second compound 10 µM, first compound 0.01 µM
[29] = second compound 10 µM, first compound 0.0316 µM
[30] = second compound 10 µM, first compound 0.1 µM
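Also: spheroids exposed to compounds for 7 days before readout.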
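For viability, T/C in this document: 100% = DMSO vehicle control wells.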

CC(C)CC(NC(=O)C(Cc1ccccc1)NC(=O)c1cnccn1)B(O)O (stereo not given) + NC1CC1c1ccc(-c2cccc(O)c2)cc1
IC50 (second compound 0.1 µM): 7.45 nM
IC50 (second compound 0.316 µM): 7.39 nM
IC50 (second compound 1 µM): 7.95 nM
IC50 (second compound 3.16 µM): 7.95 nM
IC50 (second compound 10 µM): 6.77 nM
viability, T/C [1]: 122%
viability, T/C [2]: 102%
viability, T/C [3]: 93.9%
viability, T/C [4]: 33.9%
viability, T/C [5]: 32.3%
viability, T/C [6]: 24.2%
viability, T/C [7]: 119%
viability, T/C [8]: 109%
viability, T/C [9]: 111%
viability, T/C [10]: 25.3%
viability, T/C [11]: 30.7%
viability, T/C [12]: 28.5%
viability, T/C [13]: 113%
viability, T/C [14]: 104%
viability, T/C [15]: 102%
viability, T/C [16]: 35.9%
viability, T/C [17]: 36.8%
viability, T/C [18]: 19.4%
viability, T/C [19]: 123%
viability, T/C [20]: 136%
viability, T/C [21]: 105%
viability, T/C [22]: 36.5%
viability, T/C [23]: 28.5%
viability, T/C [24]: 20.7%
viability, T/C [25]: 110%
viability, T/C [26]: 118%
viability, T/C [27]: 98.7%
viability, T/C [28]: 25%
viability, T/C [29]: 25.5%
viability, T/C [30]: 14.5%

CC(C)CC(NC(=O)CNC(=O)c1cc(Cl)ccc1Cl)B1OC(=O)CC(CC(=O)O)(C(=O)O)O1 (stereo not given) + NC1CC1c1ccc(-c2cccc(O)c2)cc1
IC50 (second compound 0.1 µM): 83.1 nM
IC50 (second compound 0.316 µM): > 100 nM
IC50 (second compound 1 µM): 84.5 nM
IC50 (second compound 3.16 µM): > 100 nM
IC50 (second compound 10 µM): 49.9 nM
viability, T/C [1]: 105%
viability, T/C [2]: 114%
viability, T/C [3]: 97.8%
viability, T/C [4]: 80.7%
viability, T/C [5]: 74.3%
viability, T/C [6]: 45%
viability, T/C [7]: 102%
viability, T/C [8]: 102%
viability, T/C [9]: 94.5%
viability, T/C [10]: 77.6%
viability, T/C [11]: 76.5%
viability, T/C [12]: 52.8%
viability, T/C [13]: 103%
viability, T/C [14]: 106%
viability, T/C [15]: 104%
viability, T/C [16]: 80%
viability, T/C [17]: 66.1%
viability, T/C [18]: 46.6%
viability, T/C [19]: 90%
viability, T/C [20]: 105%
viability, T/C [21]: 102%
viability, T/C [22]: 68.2%
viability, T/C [23]: 60.8%
viability, T/C [24]: 45.2%
viability, T/C [25]: 95.8%
viability, T/C [26]: 108%
viability, T/C [27]: 101%
viability, T/C [28]: 80.1%
viability, T/C [29]: 59.7%
viability, T/C [30]: 37.7%
